{"source": "patent US20230255904A1", "about": "“PHARMACEUTICAL COMPOSITION FOR PREVENTING OR TREATING CANCER COMPRISING NAPHTHOQUINONE-BASED COMPOUND AND IMMUNE CHECKPOINT INHIBITOR AS ACTIVE INGREDIENTS” (NADIANBIO LTD., priority 2020, published 2023)", "key": {"[1]": {"tested_on": "4T1-Luc", "test": "Tumor metastasis analysis, photon emission amount after tumor resection (4T1-Luc)", "type": "in vivo, BALB/c mice", "conditions": "Experimental Example 32; 17th day after primary tumor removal; dunnione 40 mg/kg oral daily; anti-CTLA4 antibody 200 μg/head intraperitoneal at intervals of 3 days; mitoxantrone 6 mg/kg intraperitoneal once on 1st day", "experimental": "4T1-Luc (2.5×10^6 cells) as a mouse breast cancer cell line overexpressing a luciferase was implanted into mammary fat pads of BALB/c mice, and the tumor was removed through surgical resection when the size of the cancer reached 150 to 200 mm^3. The administration of drugs was started from the day after the tumor removal procedure, and the degree of cancer metastasis was measured by measuring the photon emission amount at intervals of 1 week from the 3rd day after the tumor removal procedure.\nAfter sole administration or co-administration of respective drugs was performed according to the administration schedule listed in Table 35 below, the photon emission amount (fold) was measured on the 17th day according to the tumor metastasis assessment method described in Example 2.1, and the results thereof are shown in Table 35 and FIG. 32."}, "[2]": {"tested_on": "B16F10", "test": "Tumor growth inhibition, animal model for skin cancer (B16F10)", "type": "in vivo,  mice", "experimental": "(§1) All mice used in the experiments were raised in a sterile animal room with constant temperature (22° C. to 26° C.) and constant humidity (55% to 60%), acclimatized for 1 week while sufficiently supplying typical solid feed (Samtako Inc., Korea) and water, and then used. All experiments were conducted after obtaining approval from the Institutional Animal Care and Use Committee in accordance with the laboratory animal care and ethics regulations of the Institutional Animal Care and Use Committee of Wonkwang University.\n(§2) 7-week-old BALB/c or C57BL/6 mice were used, and subcutaneously inoculated using a 1-mL insulin syringe within 30 minutes after mixing the mouse cancer cells with 0.2 mL of PBS.\n(§3) After the cancer cell line was subcutaneously implanted, the administration of drugs was started when the size of the cancer reached 50 to 100 mm^3. The volumes (mm^3) of the tumors, which were generated after the inoculation, were measured at intervals of 3 days using a caliper, calculation was performed using the formula of […], and then the results thereof were compared.\n(§4) In addition, sole administration or co-administration of respective drugs was performed according to the administration schedules listed in Tables 4 to 34 below, the tumor volumes were then measured according to the tumor proliferation assessment method described in Example 1.1, the tumor growth inhibition rates (TGI (O)=(Vc−Vt)/Vc×100(%); Vc: tumor volume of control, Vt tumor volume of experimental group) were calculated based the tumor volumes, and the results thereof are shown in the respective tables and FIGS. 1 to 31."}, "[3]": {"tested_on": "Hepa1-6", "test": "Tumor growth inhibition, animal model for liver cancer (Hepa1-6)", "type": "in vivo, C57BL/6 mice", "conditions": "Dunnione 40 mg/kg oral every day from 11th day, Anti-CTLA4 antibody 200 μg/head i.p. 2 times a week from 11th day", "experimental": "as §1, §2\nas §3, with “compared. […]” for “compared.”"}, "[4]": {"tested_on": "4T1", "test": "Tumor growth inhibition, animal model for breast cancer I (4T1)", "type": "in vivo, BALB/c mice", "experimental": "as §1, §2, §3, §4"}}}
{"smiles": "CC1OC2=C(C(=O)C(=O)c3ccccc32)C1(C)C", "note": "(stereo not shown) [Dunnione, 2,3,3-trimethyl-2H-benzo[g][1]benzofuran-4,5-dione]", "values": [{"measurement": "Photon emission amount", "setting": "[1]", "result": "2805.3 ± 2352.3", "unit": "fold"}, {"measurement": "TGI (%)", "setting": "[2]; Experimental Example 21, Dunnione 40 mg/kg oral every day from 6th day, Anti-PD-L1 antibody 200 μg/head i.p. 2 times a week from 6th day, 3 times", "result": 24.1, "unit": "%"}, {"measurement": "TGI (%)", "setting": "[2]; Experimental Example 22, Dunnione 40 mg/kg oral every day from 6th day, Anti-PD-L1 antibody 200 μg/head i.p. 2 times a week from 6th day, 3 times, Paclitaxel 14 mg/kg i.p. at intervals of 1 week from 6th day, 2 times", "result": 24.1, "unit": "%"}, {"measurement": "TGI (%)", "setting": "[2]; Experimental Example 23, Dunnione 40 mg/kg oral every day from 6th day, Anti-CTLA4 antibody 200 μg/head i.p. 2 times a week from 6th day, 4 times, Paclitaxel 14 mg/kg i.p. once on 6th day", "result": 16.7, "unit": "%"}, {"measurement": "TGI (%)", "setting": "[2]; Experimental Example 24, Dunnione 40 mg/kg oral every day from 7th day, Anti-CTLA4 antibody 100 μg/head i.p. 2 times a week from 7th day, 2 times, Regorafenib 3 mg/kg oral every day from 7th day", "result": 9.2, "unit": "%"}, {"measurement": "TGI (%)", "setting": "[2]; Experimental Example 25, Dunnione 40 mg/kg oral every day from 8th day, Anti-PD-1 antibody 100 μg/head i.p. 2 times a week from 8th day, 3 times, Vistusertib 15 mg/kg oral every day from 8th day", "result": 34.6, "unit": "%"}, {"measurement": "TGI (%)", "setting": "[2]; Experimental Example 26, Dunnione 40 mg/kg oral every day from 8th day, Everolimus 0.5 mg/kg oral every day from 8th day", "result": 31.5, "unit": "%"}, {"measurement": "TGI (%)", "setting": "[2]; Experimental Example 27, Dunnione 40 mg/kg oral every day from 8th day, Anti-PD-1 antibody 100 μg/head i.p. 2 times a week from 8th day, 3 times, Everolimus 0.5 mg/kg oral every day from 8th day", "result": 34.6, "unit": "%"}, {"measurement": "TGI (%)", "setting": "[3]; Experimental Example 28, 4 times, Sorafenib 10 mg/kg oral every day from 11th day", "result": 29.1, "unit": "%"}, {"measurement": "TGI (%)", "setting": "[3]; Experimental Example 29, 3 times, Everolimus 1 mg/kg oral every day from 11th day", "result": 22.4, "unit": "%"}, {"measurement": "TGI (%)", "setting": "[4]; Experimental Example 10, Dunnione 40 mg/kg oral every day from 5th day, Anti-CTLA4 antibody 200 μg/head i.p. at intervals of 3 days from 5th day, 4 times, Mitoxantrone 6 mg/kg i.p. once on 5th day", "result": 8.9, "unit": "%"}, {"measurement": "TGI (%)", "setting": "[4]; Experimental Example 12, Dunnione 40 mg/kg oral every day from 7th day, Adriamycin 3.08 mg/kg + Cyclophosphamide 30.8 mg/kg + Paclitaxel 4.12 mg/kg i.p. at intervals of 1 week from 7th day, 3 times", "result": 23.6, "unit": "%"}, {"measurement": "TGI (%)", "setting": "[4]; Experimental Example 13, Dunnione 40 mg/kg oral every day from 7th day, Docetaxel 4.06 mg/kg + Adriamycin 2.7 mg/kg + Cyclophosphamide 27 mg/kg i.p. at intervals of 1 week from 7th day, 4 times", "result": 16.1, "unit": "%"}]}
